PMC10352257, “In vivo effects of the alpha-synuclein misfolding inhibitor minzasolmin supports clinical development in Parkinson’s disease” (NPJ Parkinson's Disease, 2023)
“Also recorded” adds a separate entry of the source.

Columns and labels:
[1] = test system: proteinase K-resistant ASYN; experiment: Immunohistochemical evaluation of proteinase K-resistant ASYN in brain sections, 3-month study; type: in vivo, mouse; conditions: for change in proteinase K-resistant ASYN immunolabeling vs vehicle-treated transgenic mice: striatum (P < 0.0001); for proteinase K-resistant ASYN immunolabeling, mean: Line 61 tg, 3 months, adjusted P <0.0001
Excerpt: A transgenic mouse model of Parkinson’s disease overexpressing human wild-type ASYN under the murine Thy-1 promoter on a mixed C57Bl/6 background was used in the present studies (commonly referred to Line 61)[49]. The Line 61 transgenic mouse model of Parkinson’s disease develops extensive accumulation of ASYN in areas relevant to Parkinson’s disease[49]–[51], neurodegeneration (as evidenced by loss of tyrosine hydroxylase[52],[53] and dopamine transporter immunoreactivity[18] in the striatum), inflammation, and both motor and non-motor functional deficits. Multiple cohorts of mice were transferred from the University of California, San Diego to a Neuropore-funded AAALAC-accredited vivarium facility per a laboratory service agreement between Neuropore Therapies, Inc. and the laboratory of Dr. Eliezer Masliah under institutional animal care and use committee (IACUC) Protocol S02221. All in vivo testing was conducted by Neuropore personnel under Explora Biosciences animal care and use protocol (ACUP) number E15-016-2. Three-month-old male transgenic and age-matched non-transgenic littermate control mice were used and housed up to 5 per cage. Animals received free access to food and water prior to the experiment. The vivarium ambient room temperature was monitored daily and kept within a range of 68–72 degrees Fahrenheit. Animals were kept on a 12:12 diurnal light cycle, with lights on at 0600.
Minzasolmin was dissolved in a vehicle solution consisting of 40% Captisol (CyDex Pharmaceuticals, Inc.; Kansas, USA) in sterile water and administered at a volume of 0.1 ml/20 g of body weight. Animals received a Monday–Friday daily intraperitoneal injection of vehicle, or 1 or 5 mg/kg minzasolmin for approximately 90 days. Animals received treatment up to and including a final injection 1 h prior to euthanasia. All study solutions were blind coded and experimenters were blinded to genotype and treatment group assignments for the duration of the study, ex vivo evaluations (i.e., neuropathology sample processing and imaging, videotape scoring) and through penultimate data analyses (i.e., data quality control with documented exclusions prior to unblinding; unblinding required for a priori pairwise comparisons).
All subjects were euthanized within 1 h of the last treatment and brain and blood were collected. Tissue processing and imaging methods were conducted as described previously[17],[18],[52] and performed under a lab service agreement between UCSD and Neuropore Therapies. All samples were blind coded to genotype and treatment group throughout immune-histological processing and imaging. The right hemibrain was post-fixed in phosphate-buffered 4% paraformaldehyde (pH 7.4) at 4 °C for 48 and then serially sectioned into […] thick […] sections using a vibratome. Sections were free-floated and incubated overnight at 4 °C with primary antibodies. To confirm the specificity of primary antibodies, control experiments were performed in which sections were incubated overnight in the absence of primary antibody, pre-immune serum, or primary antibody pre-adsorbed for 48 h with 20-fold excess of the corresponding peptide. Tissue collection, processing, and imaging methods were conducted as described previously. Briefly, the right hemibrain was post-fixed in phosphate-buffered 4% paraformaldehyde (pH 7.4) at 4 °C for 48 h, and then serially sectioned into 40 µm thick coronal sections using a vibratome. Sections were free-floated and incubated overnight at 4 °C with primary antibodies. To confirm the specificity of primary antibodies, control experiments were performed in which sections were incubated overnight in the absence of primary antibody (data not shown). Immunolabeled sections were imaged with a Zeiss 63× (N.A. 1.4) objective on an Axiovert 35 microscope (Zeiss, Germany). Immunolabeling was evaluated as a corrected optical density across a field of view. […]

Line 61 transgenic mice = experiment: Grip strength, Line 61 transgenic mice; type: in vivo, mouse; conditions: 1 and 5 mg/kg, re-test after treatment, two-way ANOVA with repeated measures
Excerpt: A transgenic mouse model of Parkinson’s disease overexpressing human wild-type ASYN under the murine Thy-1 promoter on a mixed C57Bl/6 background was used in the present studies (commonly referred to Line 61)[49]. The Line 61 transgenic mouse model of Parkinson’s disease develops extensive accumulation of ASYN in areas relevant to Parkinson’s disease[49]–[51], neurodegeneration (as evidenced by loss of tyrosine hydroxylase[52],[53] and dopamine transporter immunoreactivity[18] in the striatum), inflammation, and both motor and non-motor functional deficits. […] The vivarium ambient room temperature was monitored daily and kept within a range of 68–72 degrees Fahrenheit. […]
Nonetheless, a baseline measurement of grip strength is always included to confirm existing deficits in Line 61 transgenic mice and to inform pseudorandomized treatment group assignment (i.e., ensuring that each treatment group started with a similar distribution of grip strength performances). […] The dependent measure, peak strength (in grams of force), was determined per trial and as an average for each animal across trials. […]

CCCC[C@H](Cc1c[nH]c2ccccc12)NC(=O)c1cnc(N2CCN(C)CC2)s1 [minzasolmin]
change in proteinase K-resistant ASYN immunolabeling vs vehicle-treated transgenic mice ([1]; 1 mg/kg, cortex, hippocampus): statistically significant reductions; also recorded: statistically significant decreases
change in proteinase K-resistant ASYN immunolabeling vs vehicle-treated transgenic mice ([1]; 5 mg/kg, cortex, hippocampus): statistically significant reductions; also recorded: statistically significant decreases
effect of dose on proteinase K-resistant ASYN, 1 vs. 5 mg/kg ([1]; any examined region): no statistically significant effects
proteinase K-resistant ASYN immunolabeling, mean ([1]; cortex, 1 mg/kg, Line 61 tg/Vehicle 242.5): 180.6
proteinase K-resistant ASYN immunolabeling, mean ([1]; cortex, 5 mg/kg, Line 61 tg/Vehicle 242.5): 187.3
proteinase K-resistant ASYN immunolabeling, mean ([1]; hippocampus, 1 mg/kg, Line 61 tg/Vehicle 270.1): 176.6
proteinase K-resistant ASYN immunolabeling, mean ([1]; hippocampus, 5 mg/kg, Line 61 tg/Vehicle 270.1): 178.3
proteinase K-resistant ASYN immunolabeling, mean ([1]; striatum, 1 mg/kg, Line 61 tg/Vehicle 266.7): 176.1
proteinase K-resistant ASYN immunolabeling, mean ([1]; striatum, 5 mg/kg, Line 61 tg/Vehicle 266.7): 182.2
effect of chronic treatment on grip strength of Line 61 transgenic mice (Line 61 transgenic mice): no statistically significant benefits
